# Measurements reported in patent US20250098679A1, “HERBICIDAL PYRIDONE DERIVATIVES” (SYNGENTA CROP PROTECTION AG, priority 2021, published 2025).
# How the values were obtained:
# Type in all cases: in vivo
# [1] = test system: Echinochloa crus-galli (ECHCG); assay: Post-emergence Test, Echinochloa crus-galli (ECHCG); set-up: key to percentage damage caused to the plant, ECHCG (five-point scale): 5=81-100%, 4=61-80%, 3=41-60%, 2=21-40%, 1=0-20% damage; settings: evaluated after 13 days; for Post-emergence Test ECHCG, percentage damage caused to the plant (five-point scale): 250 g/Ha (*)
# Method: (§1) Seeds of a variety of test species are sown in standard soil in pots (Setaria faberi (SETFA), Echinochloa crus-galli (ECHCG), Zea mays (ZEAMX), Ipomoea hederacea (IPOHE), Amaranthus palmeri (AMAPA), Amaranthus retoflexus (AMARE)). After 8 days cultivation under controlled conditions in a glasshouse (at 24° C./16° C., day/night; 14 hours light; 65% humidity), the plants are sprayed with an aqueous spray solution derived from the formulation of the technical active ingredient in acetone/water (50:50) solution containing 0.5% Tween 20 (polyoxyethelyene sorbitan monolaurate, CAS RN 9005-64-5). Compounds are applied at 1000 g/ha unless otherwise stated. The test plants are then grown in a glasshouse under controlled conditions in a glasshouse (at 24° C./16° C., day/night; 14 hours light; 65% humidity) and watered twice daily. After 13 days the test is evaluated for the percentage damage caused to the plant. The biological activities are shown in the following table on a five-point scale (5=81-100%; 4=61-80%; 3=41-60%; 2=21-40%; 1=0-20%; -=not tested).
# [2] = test system: Setaria faberi (SETFA); assay: Post-emergence Test, Setaria faberi (SETFA); set-up: key to percentage damage caused to the plant, SETFA (five-point scale): 5=81-100%, 4=61-80%, 3=41-60%, 2=21-40%, 1=0-20% damage; settings: evaluated after 13 days
# Method: as §1
# [3] = test system: Ipomoea hederacea (IPOHE); assay: Post-emergence Test, Ipomoea hederacea (IPOHE); set-up: key to percentage damage caused to the plant, IPOHE (five-point scale): 5=81-100%, 4=61-80%, 3=41-60%, 2=21-40%, 1=0-20% damage; settings: evaluated after 13 days
# Method: as §1
# [4] = test system: Zea mays (ZEAMX); assay: Post-emergence Test, Zea mays (ZEAMX); set-up: key to percentage damage caused to the plant, ZEAMX (five-point scale): 5=81-100%, 4=61-80%, 3=41-60%, 2=21-40%, 1=0-20% damage; settings: evaluated after 13 days
# Method: as §1
# [5] = test system: Amaranthus retoflexus (AMARE); assay: Post-emergence Test, Amaranthus retoflexus (AMARE); set-up: key to percentage damage caused to the plant, AMARE (five-point scale): 5=81-100%, 4=61-80%, 3=41-60%, 2=21-40%, 1=0-20% damage; settings: evaluated after 13 days
# Method: as §1
# [6] = test system: Amaranthus palmeri (AMAPA); assay: Post-emergence Test, Amaranthus palmeri (AMAPA); set-up: key: 5=81-100%, 4=61-80%, 3=41-60%, 2=21-40%, 1=0-20% damage; settings: evaluated after 13 days
# Method: as §1
Compound,"percentage damage caused to the plant, ECHCG (five-point scale) ([1]; 1000 g/ha)","percentage damage caused to the plant, SETFA (five-point scale) ([2]; 1000 g/ha)","percentage damage caused to the plant, IPOHE (five-point scale) ([3]; 1000 g/ha)","percentage damage caused to the plant, ZEAMX (five-point scale) ([4]; 1000 g/ha)","percentage damage caused to the plant, AMARE (five-point scale) ([5]; 1000 g/ha)","percentage damage caused to the plant, AMAPA (five-point scale) ([6]; 1000 g/ha)",also measured
"CCOC(=O)c1c(-c2ccc(Cl)c(Cl)c2)n(CC)c(Cn2cnc(C#N)n2)cc1=O [Compound 54, ethyl 6-[(3-cyano-1,2,4-triazol-1-yl)methyl]-2-(3,4-dichlorophenyl)-1-ethyl-4-oxo-pyridine-3-carboxylate]",1 (1=0-20%),1 (1=0-20%),0,1 (1=0-20%),1 (1=0-20%),1 (1=0-20%),
"CCn1c(Cn2ccc(C(F)(F)F)n2)cc(=O)c(C(=O)O)c1-c1ccc(N)c(Cl)c1 [Compound 133, 2-(4-amino-3-chloro-phenyl)-1-ethyl-4-oxo-6-[[3-(trifluoromethyl)pyrazol-1-yl]methyl]pyridine-3-carboxylic acid]",0,0,1 (1=0-20%),0,1 (1=0-20%),1 (1=0-20%),"percentage damage caused to the plant, ECHCG (five-point scale) ([1]; 250 g/Ha): 0; percentage damage caused to the plant, SETFA (five-point scale) ([2]; 250 g/Ha): 1 (1=0-20%); percentage damage caused to the plant, IPOHE (five-point scale) ([3]; 250 g/Ha): 0; percentage damage caused to the plant, ZEAMX (five-point scale) ([4]; 250 g/Ha): 0; percentage damage caused to the plant, AMARE (five-point scale) ([5]; 250 g/Ha): 1 (1=0-20%); percentage damage caused to the plant, AMAPA (five-point scale) ([6]; 250 g/Ha): 1 (1=0-20%)"
CCn1c(Cn2ccc(-c3ccco3)n2)cc(=O)c(C(=O)O)c1-c1ccc(Cl)c(Cl)c1 [Compound 200],,,,,,,"Post-emergence Test ECHCG, percentage damage caused to the plant (five-point scale) [1]: 1 (1=0-20%); Post-emergence Test SETFA, percentage damage caused to the plant (five-point scale) ([2]; 1000 g/ha): 1 (1=0-20%); Post-emergence Test IPOHE, percentage damage caused to the plant (five-point scale) ([3]; 250 g/Ha (*)): 0; Post-emergence Test IPOHE, percentage damage caused to the plant (five-point scale) ([3]; 1000 g/ha): 1 (1=0-20%); Post-emergence Test ZEAMX, percentage damage caused to the plant (five-point scale) ([4]; 250 g/Ha (*)): 1 (1=0-20%); Post-emergence Test ZEAMX, percentage damage caused to the plant (five-point scale) ([4]; 1000 g/ha): 1 (1=0-20%); Post-emergence Test AMARE, percentage damage caused to the plant (five-point scale) ([5]; 250 g/Ha (*)): 0; Post-emergence Test AMARE, percentage damage caused to the plant (five-point scale) ([5]; 1000 g/ha): 0; Post-emergence Test AMAPA, percentage damage caused to the plant (five-point scale) ([6]; 250 g/Ha (*)): 0; Post-emergence Test AMAPA, percentage damage caused to the plant (five-point scale) ([6]; 1000 g/ha): 0"
"CCn1c(C(C)n2ccc(C(F)(F)F)n2)cc(=O)c(C(=O)O)c1-c1ccc(Cl)c(Cl)c1 (stereo not drawn) [Compound 172, 2-(3,4-dichlorophenyl)-1-ethyl-4-oxo-6-[1-[3-(trifluoromethyl)pyrazol-1-yl]ethyl]pyridine-3-carboxylic acid]",,1 (1=0-20%),1 (1=0-20%),1 (1=0-20%),2 (2=21-40%),2 (2=21-40%),"percentage damage caused to the plant, ECHCG (five-point scale) ([1]; 250 g/Ha): 0; percentage damage caused to the plant, IPOHE (five-point scale) ([3]; 250 g/Ha): 0; percentage damage caused to the plant, ZEAMX (five-point scale) ([4]; 250 g/Ha): 0; percentage damage caused to the plant, AMARE (five-point scale) ([5]; 250 g/Ha): 1 (1=0-20%); percentage damage caused to the plant, AMAPA (five-point scale) ([6]; 250 g/Ha): 1 (1=0-20%)"
"CCn1c(Cn2ccc(-c3ccncc3)n2)cc(=O)c(C(=O)O)c1-c1ccc(Cl)c(Cl)c1 [Compound 195, 2-(3,4-dichlorophenyl)-1-ethyl-4-oxo-6-[[3-(4-pyridyl)pyrazol-1-yl]methyl]pyridine-3-carboxylic acid]",,,,,,,"Post-emergence Test ECHCG, percentage damage caused to the plant (five-point scale) [1]: 1 (1=0-20%); Post-emergence Test SETFA, percentage damage caused to the plant (five-point scale) ([2]; 1000 g/ha): 2 (2=21-40%); Post-emergence Test IPOHE, percentage damage caused to the plant (five-point scale) ([3]; 250 g/Ha (*)): 0; Post-emergence Test IPOHE, percentage damage caused to the plant (five-point scale) ([3]; 1000 g/ha): 1 (1=0-20%); Post-emergence Test ZEAMX, percentage damage caused to the plant (five-point scale) ([4]; 250 g/Ha (*)): 0; Post-emergence Test ZEAMX, percentage damage caused to the plant (five-point scale) ([4]; 1000 g/ha): 1 (1=0-20%); Post-emergence Test AMARE, percentage damage caused to the plant (five-point scale) ([5]; 250 g/Ha (*)): 0; Post-emergence Test AMARE, percentage damage caused to the plant (five-point scale) ([5]; 1000 g/ha): 1 (1=0-20%); Post-emergence Test AMAPA, percentage damage caused to the plant (five-point scale) ([6]; 250 g/Ha (*)): 0; Post-emergence Test AMAPA, percentage damage caused to the plant (five-point scale) ([6]; 1000 g/ha): 0"
"CCn1c(Cn2cnc(C#N)c2C#N)cc(=O)c(C(=O)O)c1-c1ccc(Cl)c(Cl)c1 [Compound 113, 2-(3,4-dichlorophenyl)-6-[(4,5-dicyanoimidazol-1-yl)methyl]-1-ethyl-4-oxo-pyridine-3-carboxylic acid]",1 (1=0-20%),1 (1=0-20%),0,1 (1=0-20%),1 (1=0-20%),1 (1=0-20%),
"CCn1c(Cn2cc3cc(Cl)ccc3n2)cc(=O)c(C(=O)O)c1-c1ccc(Cl)c(Cl)c1 [Compound 99, 6-[(5-chloroindazol-2-yl)methyl]-2-(3,4-dichlorophenyl)-1-ethyl-4-oxo-pyridine-3-carboxylic acid]",0,0,1 (1=0-20%),1 (1=0-20%),0,0,"percentage damage caused to the plant, ECHCG (five-point scale) ([1]; 250 g/Ha): 1 (1=0-20%); percentage damage caused to the plant, SETFA (five-point scale) ([2]; 250 g/Ha): 0; percentage damage caused to the plant, IPOHE (five-point scale) ([3]; 250 g/Ha): 0; percentage damage caused to the plant, ZEAMX (five-point scale) ([4]; 250 g/Ha): 0; percentage damage caused to the plant, AMARE (five-point scale) ([5]; 250 g/Ha): 0; percentage damage caused to the plant, AMAPA (five-point scale) ([6]; 250 g/Ha): 0"
"CCOC(=O)c1c(-c2ccc(Cl)c(Cl)c2)n(CC)c(Cn2nccn2)cc1=O [Compound 58, ethyl 2-(3,4-dichlorophenyl)-1-ethyl-4-oxo-6-(triazol-2-ylmethyl)pyridine-3-carboxylate]",1 (1=0-20%),1 (1=0-20%),0,0,1 (1=0-20%),0,
"CCn1c(Cn2nc(C)cc2OC(C)(C)C)cc(=O)c(C(=O)O)c1-c1ccc(Cl)c(Cl)c1 [Compound 152, 6-[(5-tert-butoxy-3-methyl-pyrazol-1-yl)methyl]-2-(3,4-dichlorophenyl)-1-ethyl-4-oxo-pyridine-3-carboxylic acid]",1 (1=0-20%),0,0,1 (1=0-20%),1 (1=0-20%),1 (1=0-20%),
"CCn1c(Cn2ccc(-c3cccc(Cl)c3)n2)cc(=O)c(C(=O)O)c1-c1ccc(Cl)c(Cl)c1 [Compound 202, 6-[[3-(3-chlorophenyl)pyrazol-1-yl]methyl]-2-(3,4-dichlorophenyl)-1-ethyl-4-oxo-pyridine-3-carboxylic acid]",,,,,,,"Post-emergence Test SETFA, percentage damage caused to the plant (five-point scale) ([2]; 1000 g/ha): 1 (1=0-20%); Post-emergence Test IPOHE, percentage damage caused to the plant (five-point scale) ([3]; 1000 g/ha): 1 (1=0-20%); Post-emergence Test ZEAMX, percentage damage caused to the plant (five-point scale) ([4]; 1000 g/ha): 1 (1=0-20%); Post-emergence Test AMARE, percentage damage caused to the plant (five-point scale) ([5]; 1000 g/ha): 0; Post-emergence Test AMAPA, percentage damage caused to the plant (five-point scale) ([6]; 1000 g/ha): 0"
"CCn1c(Cn2nc(C#N)cc2C#N)cc(=O)c(C(=O)O)c1-c1ccc(Cl)c(Cl)c1 [Compound 132, 2-(3,4-dichlorophenyl)-6-[(3,5-dicyanopyrazol-1-yl)methyl]-1-ethyl-4-oxo-pyridine-3-carboxylic acid]",1 (1=0-20%),1 (1=0-20%),0,1 (1=0-20%),0,,
"CCn1c(Cn2ccc(Cl)n2)cc(=O)c(C(=O)O)c1-c1ccc(Cl)c(C#N)c1 [Compound 131, 2-(4-chloro-3-cyano-phenyl)-6-[(3-chloropyrazol-1-yl)methyl]-1-ethyl-4-oxo-pyridine-3-carboxamide acid]",,2 (2=21-40%),1 (1=0-20%),0,0,0,
